Patent publication US10335382B2, “Use of hydrogen sulfide synthesis inhibitors for cancer therapy” (THE BOARD OF REGENTS OF THE UNIVERSITY OF TEXAS SYSTEM, priority 2013, dated 2019)

Experiments:
[1] = tested on: mitochondria isolated from HCT116 cells; assay: Bioenergetic analysis in isolated mitochondria; assay type: cell-based, human; settings: L-cysteine 30 nM; mitochondria from control shNT cells
Experimental: Bioenergetic measurements in mitochondria isolated from shNT and shCBS HCT-116 cells were conducted in the absence or presence of L-cysteine (30 nM) (Módis et al. (2013) FASEB J 27:601-11; Wu et al. (2007) Am J Physiol Cell Physiol. 292:C125-36). Basal respiration (State 2) in the presence of succinate and rotenone was measured, followed by State 3 (phosphorylating respiration), in the presence of ADP. State 4o was determined after the addition of oligomycin, and maximal uncoupler-stimulated respiration (State 3u) was assessed in the presence of FCCP.

[2] = tested on: peritumor microvessel blood flow; assay: Tumor microvascular blood flow (laser Doppler); assay type: in vivo, mice; settings: intratumoral injection; AOAA 9 mg/kg, L-cysteine 1 mg/kg
Experimental: FIG. 6. L-Cysteine increases, while AOAA reduces microvessel blood flow in tumor bearing mice. Tumor bearing mice were anesthetized by i.p. injection of ketamine-xylazine and a laser Doppler (PeriFlux system 5000) was placed on top of the tumor for microvessel blood flow measurements. After a stabilization period, L-Cys or AOAA were injected subcutaneously in proximity of the tumor. […] Data represent mean±SEM of n=6 determinations.
Skin microvascular blood flow was measured using a PeriFlux 5000 laser-Doppler flowmeter. Mice bearing PTX were anesthetized by ketamine-xylazine (i.p.). The laser-Doppler probe was placed on top of the tumors and a stable basal signal was recorded. Changes in the subcutaneous microcirculatory perfusion were detected following intratumoral injections of either L-cysteine (1 mg/kg) or AOAA (9 mg/kg).

[3] = tested on: HCT116 cells; assay: HCT116 cell migration and invasion (Transwell); assay type: cell-based, human; settings: NaHS 30 μM in lower chamber; serum-free media
Experimental: FIG. 3. […] (A, B) The lentiviral shRNA vectors targeting CBS (shCBS) and CSE (shCSE) were transfected into HCT116 cells. A non-targeting sequence was used as control (shNT). […] Following CBS and CSE silencing, cells were seeded at the density of 3000 cells/well in xCELLigence plates and proliferation was monitored for 36 hours. […] The NCM356 cells were infected overnight with a CBS expressing adenovirus (Ad-CBS, 10 multiplicity of infection (MOI)) or its control, a green fluorescent protein (Ad-GFP). The culture media was then replaced and cells were seeded in XCelligence plates at 3000 cells/well. Cell proliferation was then measured real-time over 36 hours. […] (H, I) The effect of AOAA and NaHS was also tested on HCT116 cell migration (H) and invasion (I). Cells were pretreated either with vehicle or AOAA (1 mM) and seeded in serum-free DMEM (0.1% albumin) in the upper chamber of a trans-well insert uncoated (migration assay) or coated with growth factor reduced matrigel (invasion assay). Migration and invasion were stimulated by fibroblast-conditioned media in the lower chamber for 6 and 24 hours, respectively. […] (J) In a co-culture of human endothelial cells (EAhy926) and colon cancer cells (HCT116), HCT 116 cells were seeded in the lower chamber of a trans-well insert and cultured to confluence. Endothelial cells were then seeded into the upper chamber in serum-free DMEM and allowed to migrate for 4 hours at 37° C. […] Western blots are representative of at least three independent experiments; proliferation/migration/invasion assays and H2S measurements represent mean±SEM of n=3 determinations.
Cellular migration and invasion assays were performed as described (Chao et al. (1996) Cancer Res. 56:4811-19). Briefly, 10^5 cells were suspended in serum-free media containing 0.1% BSA and then added to 6.5 mm Transwell chambers ([…]) uncoated (migration assay) or coated with a thin layer (45 μl) of growth factor reduced matrigel (cell invasion assay). Cells were allowed to migrate toward the bottom chamber containing fibroblast (NIH-3T3 cells) conditioned media at 37° C. for 6 or 24 h for cell migration and invasion, respectively. Migrated and invaded cells were then fixed in Carson's fixative, stained in 0.33% toluidine blue and quantified by visual counting. For the HCT116-EAhy926 co-culture experiment, the cancer cell line was grown to confluence in the bottom wells of the transwell chambers and then endothelial cell migration was assessed (Coletta et al. (2012) Proc Natl Acad Sci USA. 109:9161-66).

N[C@@H](CS)C(=O)O [L-cysteine]
OCR in state 3 and state 3u respiration [1]: elevates OCR
peritumor / skin microvessel blood flow [2]: increased

[Na+].[SH-] [NaHS, sodium hydrogen sulfide]
HCT116 cell invasion [3]: slightly enhanced
HCT116 cell migration [3]: slightly enhanced
